Results published in US20170042929A9, “Methods of Treating Neurological Diseases” (priority 2012, published 2017).
“Also recorded” adds a separate entry of the source.

Key:
SMEI mice (SCN1A HET) [1] = experiment: Acute CPA treatment, hyperthermia-induced seizures in vivo; parameters: species or system mouse
Protocol: (§1) The model of SMEI used in these studies is caused by a knock-in nonsense substitution (CgG to TgA in exon 21) made within a loop between segments 5 and 6. Transgenic mice were provided by Drs. K. Yamakawa and I. Ogiwara (RIKEN, Japan (14)). All of the experiments on the mice (C57BL/6/129) involved in this project were performed in accordance with animal protocols approved by the Institutional Animal Care and Use Committee of the University of Houston. Heterozygous (HET) and wild-type (WT) mice were used.

[2] = tested on: hippocampal CA1 circuit of HET (SCN1A mSMEI) tissue; experiment: Voltage-sensitive dye imaging (VSDI) of evoked neural activity propagation, FWHM; assay type: cell-based, mouse; details: for abnormally wide circuit excitation, neural activity map (dF/Fmax) / spatial extent of neural signal propagation: 50 nM CPA; for abnormally wide circuit excitation, neural activity map (dF/Fmax): HET animal P19; for spatial extent of neural signal propagation: HET tissue
Protocol: (§2) Mice (P16-22) were anesthetized with isofluorane, decapitated, and the brains immediately removed. Transverse hippocampal sections (350 μm thickness) were cut in cold dissection solution (in mM: 2.6 KCl, 1.23 NaH2PO4, 24 NaHCO3, 0.1 CaCl2, 2 MgCl2, 205 sucrose, and 10 glucose) using a vibratome and were incubated for half an hour in normal artificial cerebrospinal fluid (ACSF; pH 7.3, 30° C.) containing (in mM) 130 NaCl, 1.2 MgSO4, 3.5 KCl, 1.2 CaCl2, 10 glucose, 2.5 NaH2PO4, 24 NaHCO3 aerated with 95% O2-5% CO2. After the incubation, slices were stained with Di-4ANNEPS (final dye concentration is 0.05 mg/ml) and left to recover for an additional hour at 30° C. (23). The slices were transferred to a submersion recording chamber (Warner Instr.) and continuously perfused (2 ml/min, at 30° C.) with the oxygenated ACSF.
A combination of in vitro electrophysiology (extracellular field potential recording and whole-cell patch clamp recordings) and fast voltage-sensitive dye imaging (VSDI) was used. All electrical recordings were performed using MCC 700 amplifiers (Axon Instruments). Electrical data was acquired at 4 KHz, digitized at 10 KHz using a Digidata DAC board and pClamp software. Optical data were recorded at 250 Hz with MiCam 02 (192×126 pixels, SciMedia USA).
(§3) To characterize excitatory neural circuit activity, stimulating electrodes (concentric bipolar metal electrodes, 200 μm in diameter (FHC)) were placed on the Shaffer collaterals. fEPSP recordings were performed in hippocampal slices concurrently with the VSDI (FIGS. 1A-1E). Extracellular recording electrodes ([…], 0.9% saline) were placed in the CA1 radiatum layer. To monitor Di-4ANNEPS signals, the slices were illuminated either with Halogen (150 W; excitation 522-550 nm; emission—580 nm; dichroic—565 nm).
(§4) To elicit short-term synaptic plasticity, Schaeffer collaterals were stimulated at 40 Hz frequency using 10 pulse (0.2 msec) trains. 40 Hz falls within the gamma frequency range and stimulation was repeated every 15 seconds with stimulus amplitude was set at the half of maximal fEPSP amplitude. fEPSP and VSDI optical data trials were synchronized.
Optical and electrical data were analyzed using Brain Vision and pClamp softwares. To increase signal to noise ratio, data analysis in individual slices and during pharmacological manipulations was performed on the averages of fifteen files (electrical and optical). Standard electrophysiological analysis techniques were used to analyze fEPSP, EPSC, and IPSC characteristics. For optical analysis, 1060 msec of data were fitted with an approximately Gaussian curve (25) and full width at half maximal (FWHM) values over the distance of 950 micrometers from the stimulating electrode toward subicullum were calculated using BrainVision (SciMedia). FWHM here quantifies distance of neuronal signal propagation (or decay). FWHM calculations along the orthodromic neural activity propagation trajectory included 15 frames before and 194 frames after the 40 Hz train stimulation, and was spanning over the evoked signal as shown in FIGS. 4A-4D. All results are reported as grouped averages with standard error of the mean. Results from WT and HET, or treated versus untreated groups were compared using unpaired and paired t-tests, respectfully. A p<0.05 was regarded as statistically significant value.

[3] = tested on: isolated mouse hippocampus; experiment: Febrile seizure-like events (FSLE) in hyperthermia, extracellular recording in isolated hippocampus; assay type: cell-based; details: CPA added immediately after the first FSLE, P18 isolated hippocampus
Protocol: FIG. 9A: unfiltered extracellular recording traces (DC mode) of the typical repeated FSLEs in P18 isolated mouse hippocampus. […] Immediately after that CPA was added.
Febrile seizure-like events (FSLE) emerge and terminate as sub-threshold bursts under conditions of hyperthermia at a temperature of about 39° C. in (FIGS. 6A-6C) while spontaneous inhibitory postsynaptic currents (IPSCs) evident at 32° C. (FIG. 6D) gradually diminish as the temperature increases (FIG. 6E). In hippocampal slices FSLEs emerged on the average at 38.5° C. in tissue from HET mice and at 40.5° C. in tissue from WT mice (FIGS. 7A-7B) where the FSLE durations was almost twice as long in HET tissue (FIG. 7C).

SMEI mice (SCN1A HET) [4] = experiment: Chronic CPA treatment (P11-P20), hyperthermia-induced seizures in vivo; parameters: species or system mouse
Protocol: as §1
The A1R agonist CPA has an acute effect on the control of hyperexcitable neural network, hyperthermia-induced seizure in vitro and in vivo. To investigate if the chronic treatment of mSMEI with CPA can have long-term effects on the rewiring of the neural circuit and FS threshold activity, CPA was injected into the SMEI mice twice a day for continuous 10 days during the critical activity-dependent period of development (P11-P20), and the effects were determined 24 hours and 10 days after the last injection.

[5] = tested on: CA1 pyramidal cells of HET SMEI mice; experiment: sEPSC and sIPSC whole-cell recordings after repeated CPA treatment; assay type: in vivo, mouse; details: repeated CPA treatment P11-P20, HET+CPA vs HET+vehicle
Protocol: For electrical whole-cell voltage-clamp recordings, borosilicate glass micropipettes (4-7 MΩ) were used containing (in mM): 116 Cesium gluconate, 6 KCl, 0.5 EGTA, 20 HEPES, 10 phosphocreatine, 0.3 NaGTP, 2 NaCl, 4 MgATP, and 0.3% Neurobiotin (pH 7.25, 295 mOsm) and 5 mM QX-314 (fast voltage-gated conductance blocker). Spontaneous inhibitory postsynaptic currents (IPSCs) and EPSCs were recorded in CA1 pyramidal cells. sIPSCs were recorded at −80 mV in the presence of APV (100 μM) and CNQX (40 μM). sEPSCs were recorded at −70 mV in the presence of inhibitory synaptic transmission blocker picrotoxin (50 μM). Amplitude and frequency of sEPSCs and sIPSCs were measured and compared between WT and HET. For IPSC calculations, activity was studied in three 20 second segments (twenty seconds apart) for each cell (N=8 HET, 6WT). Since EPSCs have lower frequency, two minute long segments were used for their analysis (N=6). Cumulative distribution of the amplitudes and inter-event interval (frequency) were plotted in Prism software. t-test analysis was used to compare IPSCs and EPSCs in HET and WT tissue. All recordings were performed at 32° C. temperature. […]

[6] = tested on: hippocampal area CA1 of HET (SCN1A mSMEI) tissue; experiment: Evoked fEPSP extracellular recordings in hippocampal slices, Schaeffer collateral stimulation (single pulse and 40 Hz trains); assay type: cell-based, mouse; details: for population spike evoked by very low stimulation intensity: HET CA1; for fEPSP amplitude / synaptic excitability in HET tissue: HET hippocampus, ten pulse 40 Hz stimulation
Protocol: as §2, §3
Input-output (I-O) characteristics of fEPSPs were calculated using the same intensities of stimulation and incrementally (0.05 mA) raising them until the maximal responses or population spikes were obtained. 1-0 calculations were performed in stained and unstained slices to rule out a possible modulation of Di-4ANEPPS on GABA receptors (24). The responses from stained and unstained slices were not statistically different and were pooled together for the final analysis.
as §4
To modulate hippocampal hyperexcitability A1R agonist N6-cyclopentyladenosine (CPA) was used. N6-cyclopentyladenosine dissolved in DMSO was added to the bath ACSF solution. N6-cyclopentyladenosine took effect within 2 minutes of its application. 10 and 1 μM and 500, 100, 50, and 10 nM concentrations of CPA were tested. Since N6-cyclopentyladenosine acts through G-protein linked mechanisms, the washout of N6-cyclopentyladenosine was not possible in the current experiments. […] A1R […] DPCPX concentration was 200 nM. All drugs and dye were obtained from Sigma-Aldrich.

SMEI seizures = details: previously tested; cited from earlier work
[7] = 50 nM CPA, listed as N6-cyclopentyladenosine

OC[C@H]1O[C@@H](n2cnc3c(NC4CCCC4)ncnc32)[C@H](O)[C@@H]1O [CPA, N6-cyclopentyladenosine]
seizure duration (SMEI mice (SCN1A HET) [1]; acute CPA 15 minutes before hyperthermia, vehicle 5.91±1.17 min): 2.26 ± 0.43 min | seizure latency (SMEI mice (SCN1A HET) [1]; acute CPA 15 minutes before hyperthermia, vehicle 8.19±0.95 min): 11.68 ± 0.70 min | seizure duration (SMEI mice (SCN1A HET) [1]; acute CPA i.p. 15 minutes prior, HET+saline 5.91±1.17 (figure legend)): 2.26±0.43 | seizure latency (SMEI mice (SCN1A HET) [1]; acute CPA i.p. 15 minutes prior, HET+saline 8.19±0.95 (figure legend)): 11.68±0.70 | abnormally wide circuit excitation, neural activity map (dF/Fmax) [2]: reduced significantly; also recorded: reduced the abnormally wide circuit excitation | abnormally wide circuit excitation, neural activity map (dF/Fmax) ([2]; listed as N6-cyclopentyladenosine): abnormally wide CA1 circuit activation was confined; also recorded: reduced the abnormally wide circuit excitation | spatial extent of neural signal propagation ([2]; 40 Hz train): significantly reduced the spatial extent of neural signal propagation | spatial extent of neural signal propagation ([2]; 40 Hz train, listed as N6-cyclopentyladenosine): significantly reduced the spatial extent of neural signal propagation; also recorded: reduced propagation of the evoked signal | FWHM, spread of the evoked activity ([2]; HET slices + 50 nM CPA, 40 Hz train, untreated HET 591±106 μm, N=6 slices): 491±106 μm | epileptogenic activity (repeated FSLEs) in hyperthermia [3]: blocked epileptogenic activity in hyperthermia; also recorded: no repetitive FSLEs formed | seizure incidence (SMEI mice (SCN1A HET) [4]; chronic CPA twice a day P11-P20, 24 hours after the last treatment, vehicle 83.3%): 53% | seizure incidence (SMEI mice (SCN1A HET) [4]; chronic CPA twice a day P11-P20, 10 days after the last treatment, vehicle 75%): 43% | seizure duration (SMEI mice (SCN1A HET) [4]; chronic CPA, 24 hours after the last treatment, vehicle 3.980±0.6651): 1.424±0.6904 | seizure latency (SMEI mice (SCN1A HET) [4]; chronic CPA, 24 hours after the last treatment, vehicle 8.080±1.772): 11.25±1.140 | sIPSC amplitude [5]: does not cause significant change in sIPSCs; also recorded: no significant difference | sIPSC interval [5]: does not cause significant change in sIPSCs; also recorded: no significant difference | population spike evoked by very low stimulation intensity ([6]; 50 nM CPA): reduced this spike into a field EPSP response | population spike evoked by very low stimulation intensity [6, 7]: reduced this spike into a fEPSP response; also recorded: effectively reduced this exaggerated response into fEPSP | fEPSP amplitude / synaptic excitability in HET tissue ([6]; 50 nM CPA): significantly reduced fEPSP; also recorded: significantly reduced hippocampal circuit hyperexcitability without blocking excitatory synaptic transmission | fEPSP amplitude / synaptic excitability in HET tissue [6, 7]: significantly reduced fEPSP trains; also recorded: significantly reducing synaptic excitability in HET tissues, without blocking synaptic transmission | short-term plasticity (STP), fEPSP amplitude ratios pulses #2-10 to #1 ([6]; 50 nM CPA, HET vs HET+CPA, 40 Hz train): effected the short-term plasticity; also recorded: all statistically different | fEPSPs ([6]; 1 μM N6-cyclopentyladenosine in bath ACSF): completely eliminated fEPSPs | fEPSPs ([6]; 10 μM N6-cyclopentyladenosine in bath ACSF): completely eliminated fEPSPs | time until N6-cyclopentyladenosine took effect after its application ([6]; bath application in ACSF): ≤ 2 min

CCCn1c(=O)c2[nH]c(C3CCCC3)nc2n(CCC)c1=O [DPCPX]
effect of DPCPX on the CPA-induced decrease of fEPSP amplitude ([6]; DPCPX 200 nM added to ACSF with 50 nM CPA): prevented N6-cyclopentyladenosine to decrease fEPSP amplitude; also recorded: N6-cyclopentyladenosine was ineffective at reducing fEPSP

NC(=O)N1c2ccccc2C=Cc2ccccc21 [carbamazepine]
efficacy against SMEI seizures (SMEI seizures): none of these agents worked reliably

Nc1nnc(-c2cccc(Cl)c2Cl)c(N)n1 [lamotrigine]
efficacy against SMEI seizures (SMEI seizures): none of these agents worked reliably
